Assay results reported in patent publication US12661342B2, “Heteroaryl compounds and therapeutic uses thereof in conditions associated with the alteration of the activity of beta-glucocerebrosidase” (GT GAIN THERAPEUTICS SA, priority 2019, dated 2026).

target: T1, β-glucocerebrosidase (Homo sapiens, UniProt P04062, L483P); assay: Enhancement of β-glucocerebrosidase activity measured in Gaucher disease fibroblasts (4-MU-β-D-glucopyranoside substrate, intact cells); type: cell-based; set-up: key: Increase in comparison with non-treated of >2.0 fold is shown as A; Increase in comparison with non-treated of >1.7-2.0 fold is shown as B; Increase in comparison with non-treated of 1.2-1.7 fold is shown as C; D means that no increase compared with non-treated cells was detected in this method; settings: GBA fibroblasts bearing L444P (GM08760A, homozygous p.L444P); compound at concentrations between 6 and 50 μM; 4 days incubation
T1 construct: host or cells: human Gaucher disease patient fibroblasts GM08760A
T1 sequence (P04062 40-536 L483P): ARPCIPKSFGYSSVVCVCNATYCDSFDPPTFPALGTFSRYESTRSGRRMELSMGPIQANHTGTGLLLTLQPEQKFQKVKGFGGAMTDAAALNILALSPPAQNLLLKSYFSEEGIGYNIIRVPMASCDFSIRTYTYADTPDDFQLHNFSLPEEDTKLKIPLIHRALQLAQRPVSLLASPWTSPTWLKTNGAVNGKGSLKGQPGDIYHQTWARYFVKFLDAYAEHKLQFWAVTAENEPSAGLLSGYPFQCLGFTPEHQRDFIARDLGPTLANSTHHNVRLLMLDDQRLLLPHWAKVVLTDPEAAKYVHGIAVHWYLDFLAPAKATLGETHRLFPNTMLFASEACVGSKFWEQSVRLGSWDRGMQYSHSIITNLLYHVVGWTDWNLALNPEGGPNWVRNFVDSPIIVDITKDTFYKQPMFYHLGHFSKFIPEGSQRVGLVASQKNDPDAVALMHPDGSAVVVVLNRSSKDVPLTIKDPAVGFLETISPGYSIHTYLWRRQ
Protocol: Human fibroblasts from a patient with Gaucher disease homozygous for p.L444P mutation (GM08760A) were purchased from Coriell Institute for Medical Research (Camden, NJ, USA).
Fibroblasts were seeded at 5×10^3 cells per well in 96-well cell culture plates (Corning, NY, USA) in Dulbecco's Modified Eagle's Media (DMEM) supplemented with 10% of fetal bovine serum (FBS), 1% penicillin/streptomycin (P/S) (Thermo Fisher Scientific, Waltham, MA, USA) and grown at 37° C., 5% CO2 overnight for cell attachment. Subsequently, cells were incubated in the absence or presence of the compounds at the desired concentration for 4 days. After incubation, cells were washed twice with phosphate-buffered saline (PBS) and enzyme activity assay was performed.
β-glucocerebrosidase activity in intact cultured cells was measured by using 4-methylumbelliferyl-β-D-glucopyranoside substrate (Apollo Scientific, UK). Briefly, cells were incubated with 4-MU-β-D-glucopyranoside in 0.1 M acetate buffer pH=4 at 37° C. for 1 hour. The reaction was stopped by adding 200 μL at 100 mM glycine-NaOH pH=10.7. The liberated 4-MU was measured on a GloMax Discover plate reader (Promega, Madison, WI, USA) with and excitation at 340 nm and emission at 460 nm. Enzyme activities were expressed in treated cells as X-fold increase in comparison with non-treated cells (X=1 represents no enhancement).
The capacity of the compounds of the disclosure to produce an increase in enzyme activity in GBA fibroblasts bearing L444P at concentrations between 6 and 50 μM is denoted as follows: • Increase in comparison with non-treated of >2.0 fold is shown as A • Increase in comparison with non-treated of >1.7-2.0 fold is shown as B • Increase in comparison with non-treated of 1.2-1.7 fold is shown as C • D means that no increase compared with non-treated cells was detected in this method • ND means “not determined”

Row | SMILES | Range: increase in enzyme activity in comparison with non-treated cells (Enzyme activity assay for compounds of Examples 33-141) | Range: increase in enzyme activity in comparison with non-treated cells (Enzyme activity assay for exemplified compounds)
1 | Nc1cc(Nc2cccc3c2OCO3)nc(C(=O)N2Cc3ccccc3C2)c1 [Example 95, (4-Amino-6-(benzo[d][1,3]dioxol-4-ylamino)pyridin-2-yl)(isoindolin-2-yl)methanone] | C (Increase in comparison with non-treated of 1.2-1.7 fold is shown as C) | 
2 | Nc1cc(Nc2ccccc2O)cc(C(=O)NC2CCc3ccccc3C2)n1 (stereo not drawn) [Example 127, 6-Amino-4-((2-hydroxyphenyl)amino)-N-(1,2,3,4-tetrahydronaphthalen-2-yl)picolinamide] | B (Increase in comparison with non-treated of >1.7-2.0 fold is shown as B) | 
3 | Nc1cc(C(=O)Nc2ccccc2)cc(Nc2ccccc2O)n1 [Example 46, 2-Amino-6-((2-hydroxyphenyl)amino)-N-phenylisonicotinamide] | B (Increase in comparison with non-treated of >1.7-2.0 fold is shown as B) | 
4 | N#Cc1ccccc1Nc1cc(N)cc(C(=O)NC2Cc3ccccc3C2)n1 [Example 99, 4-Amino-6-((2-cyanophenyl)amino)-N-(2,3-dihydro-1H-inden-2-yl)picolinamide] | D | 
5 | Nc1nc2c(c(Nc3ccccc3O)n1)CCN(Cc1ccccc1)C2 [Example 25, 2-((2-Amino-7-benzyl-5,6,7,8-tetrahydropyrido[3,4-d]pyrimidin-4-yl)amino)phenol] |  | B (Increase in comparison with non-treated of >1.7-2.0 fold is shown as B)
6 | Nc1cc(Nc2ccccc2Cl)cc(C(=O)N2CCN(c3ccccc3)CC2)n1 [Example 60] | C (Increase in comparison with non-treated of 1.2-1.7 fold is shown as C) | 
7 | Nc1cc(C(=O)NC2Cc3ccccc3C2)nc(Nc2ccccc2O)n1 [Example 13, 6-Amino-N-(2,3-dihydro-1H-inden-2-yl)-2-((2-hydroxyphenyl)amino)pyrimidine-4-carboxamide] |  | C (Increase in comparison with non-treated of 1.2-1.7 fold is shown as C)
8 | COc1ccccc1Nc1cc(C(=O)N2CCN(c3ccccc3)CC2)nc(N)n1 [Example 34, (2-Amino-6-((2-methoxyphenyl)amino)pyrimidin-4-yl)(4-phenylpiperazin-1-yl)methanone] | D | 
9 | COc1ccccc1Nc1cc(N)nc(C(=O)NC2Cc3ccccc3C2)c1 [Example 76, 6-Amino-N-(2,3-dihydro-1H-inden-2-yl)-4-((2-methoxyphenyl)amino)picolinamide] | D | 
10 | COc1ccccc1Nc1cc(N)cc(C(=O)N(C)c2ccccc2)n1 [Example 113, 6-(2-Methoxyphenylamino)-4-amino-N-methyl-N-phenylpyridine-2-carboxamide] | C (Increase in comparison with non-treated of 1.2-1.7 fold is shown as C) | 
11 | Cc1ccccc1Nc1cc(N)cc(C(=O)NC2Cc3ccccc3C2)n1 [Example 87, 4-Amino-N-(2,3-dihydro-1H-inden-2-yl)-6-(o-tolylamino)picolinamide] | B (Increase in comparison with non-treated of >1.7-2.0 fold is shown as B) | 
12 | Nc1cc(Nc2ccccc2O)cc(C(=O)Nc2ccccc2)n1 [Example 65, 6-Amino-4-((2-hydroxyphenyl)amino)-N-phenylpicolinamide] | A (Increase in comparison with non-treated of >2.0 fold is shown as A) | 
13 | Nc1cc(Nc2cccc(O)c2)nc(C(=O)NC2Cc3ccccc3C2)c1 [Example 112, 4-Amino-N-(2,3-dihydro-1H-inden-2-yl)-6-((3-hydroxyphenyl)amino)picolinamide] | A (Increase in comparison with non-treated of >2.0 fold is shown as A) | 
14 | Cl.Nc1cc(Nc2cccc(F)c2)nc(C(=O)NC2Cc3ccccc3C2)c1 [Example 138, 4-Amino-N-(2,3-dihydro-1H-inden-2-yl)-6-((3-fluorophenyl)amino)picolinamide hydrochloride] | A (Increase in comparison with non-treated of >2.0 fold is shown as A) | 
15 | CN(C(=O)c1cc(N)nc(Nc2ccccc2O)c1)C1CCc2ccccc2C1 (stereo not drawn) [Example 42, 2-Amino-6-((2-hydroxyphenyl)amino)-N-methyl-N-(1,2,3,4-tetrahydronaphthalen-2-yl)isonicotinamide] | C (Increase in comparison with non-treated of 1.2-1.7 fold is shown as C) | 
16 | Nc1cc(Nc2ccccc2O)nc(C(=O)N2CCN(c3ccccc3)CC2)n1 [Example 125, (4-Amino-6-((2-hydroxyphenyl)amino)pyrimidin-2-yl)(4-phenylpiperazin-1-yl)methanone] | C (Increase in comparison with non-treated of 1.2-1.7 fold is shown as C) | 
17 | Nc1cc(Nc2ccccc2O)nc(C(=O)NC2Cc3ccccc3C2)c1 [Example 129, 4-Amino-N-(2,3-dihydro-1H-inden-2-yl)-6-((2-hydroxyphenyl)amino)picolinamide] | C (Increase in comparison with non-treated of 1.2-1.7 fold is shown as C) | 
18 | CN(C(=O)c1cc(N)cc(Nc2cccc(F)c2)n1)c1ccccc1 [Example 115, 6-(3-Fluorophenylamino)-4-amino-N-methyl-N-phenylpyridine-2-carboxamide] | C (Increase in comparison with non-treated of 1.2-1.7 fold is shown as C) | 
19 | Cc1cccc(Nc2cc(N)cc(C(=O)NC3Cc4ccccc4C3)n2)c1O [Example 91, 4-Amino-N-(2,3-dihydro-1H-inden-2-yl)-6-((2-hydroxy-3-methylphenyl)amino)picolinamide] | B (Increase in comparison with non-treated of >1.7-2.0 fold is shown as B) | 
20 | COc1ccccc1Nc1cc(N)cc(C(=O)NC2Cc3ccccc3C2)n1 [Example 54, 4-Amino-N-(2,3-dihydro-1H-inden-2-yl)-6-((2-methoxyphenyl)amino)picolinamide] | C (Increase in comparison with non-treated of 1.2-1.7 fold is shown as C) | 
21 | COc1ccccc1Nc1cc(N)nc(C(=O)N(C)c2ccccc2)c1 [Example 50, 6-Amino-4-((2-methoxyphenyl)amino)-N-methyl-N-phenylpicolinamide] | D | 
22 | Nc1cc(Nc2ccccc2O)cc(C(=O)N2CCc3ccccc32)n1 [Example 64, (6-Amino-4-((2-hydroxyphenyl)amino)pyridin-2-yl)(indolin-1-yl)methanone] | C (Increase in comparison with non-treated of 1.2-1.7 fold is shown as C) | 
23 | Nc1cc(C(=O)NC2Cc3ccccc3C2)cc(Nc2ccccc2O)n1 [Example 47, 2-Amino-N-(2,3-dihydro-1H-inden-2-yl)-6-((2-hydroxyphenyl)amino)isonicotinamide] | C (Increase in comparison with non-treated of 1.2-1.7 fold is shown as C) | 
24 | Cc1cccc(Nc2cc(N)cc(C(=O)NC3Cc4ccccc4C3)n2)c1 [Example 97, 4-Amino-N-(2,3-dihydro-1H-inden-2-yl)-6-(m-tolylamino)picolinamide] | A (Increase in comparison with non-treated of >2.0 fold is shown as A) | 
